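The concentration for 50% growth inhibition is given as GI50. The concentration for full growth arrest is given as TGI.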
Columns and labels:
Experiment in all cases: NCI anticancer screen, dose series, 384-well format
M14 melanoma = tested on: M14 melanoma
SW-620 colon = tested on: SW-620 colon
HCT-15 colon = tested on: HCT-15 colon
786-0 renal = tested on: 786-0 renal
CAKI-1 renal = tested on: CAKI-1 renal
KM12 colon = tested on: KM12 colon
NCI-H23 lung = tested on: NCI-H23 lung
MDA-MB-231 breast = tested on: MDA-MB-231 breast
PC-3 prostate = tested on: PC-3 prostate
T-47D breast = tested on: T-47D breast
SNB-19 CNS = tested on: SNB-19 CNS
OVCAR-3 ovarian = tested on: OVCAR-3 ovarian
MCF7 breast = tested on: MCF7 breast
TK-10 renal = tested on: TK-10 renal
NCI/ADR-RES ovarian = tested on: NCI/ADR-RES ovarian
NCI-H460 NSCLC = tested on: NCI-H460 NSCLC
SF-539 CNS = tested on: SF-539 CNS
OVCAR-4 ovarian = tested on: OVCAR-4 ovarian
LOX IMVI melanoma = tested on: LOX IMVI melanoma
A498 renal = tested on: A498 renal
NCI-H322M lung = tested on: NCI-H322M lung
CCRF-CEM leukemia = tested on: CCRF-CEM leukemia
HCC-2998 colon = tested on: HCC-2998 colon
SK-MEL-2 melanoma = tested on: SK-MEL-2 melanoma
OVCAR-5 ovarian = tested on: OVCAR-5 ovarian
HL-60(TB) leukemia = tested on: HL-60(TB) leukemia
HT29 colon = tested on: HT29 colon
DU-145 prostate = tested on: DU-145 prostate
K-562 leukemia = tested on: K-562 leukemia

O=P1(S)OC[C@H]2O[C@@H]3[C@H](F)[C@@H]2OP(O)(=S)OC[C@H]2O[C@H]([C@H](F)[C@@H]2O1)n1cnc2c(ncnc21)NC/C=C/CNc1ncnc2c1ncn23 (some centres not stated)
TGI (M14 melanoma): > 100 µM
GI50 (SW-620 colon): > 100 µM
TGI (SW-620 colon): > 100 µM
GI50 (HCT-15 colon): > 100 µM
TGI (HCT-15 colon): > 100 µM
GI50 ([…]-0 renal): > 100 µM
TGI (786-0 renal): > 100 µM
GI50 (CAKI-1 renal): > 100 µM
TGI (CAKI-1 renal): > 100 µM
GI50 (KM12 colon): 51.2 µM
TGI (KM12 colon): > 100 µM
GI50 (NCI-H23 lung): > 100 µM
TGI (NCI-H23 lung): > 100 µM
GI50 (MDA-MB-231 breast): > 100 µM
TGI (MDA-MB-231 breast): > 100 µM
GI50 (PC-3 prostate): > 100 µM
TGI (PC-3 prostate): > 100 µM
GI50 (T-47D breast): > 100 µM
TGI (T-47D breast): > 100 µM
GI50 (SNB-19 CNS): > 100 µM
TGI (SNB-19 CNS): > 100 µM
GI50 (OVCAR-3 ovarian): 4.99 µM
TGI (OVCAR-3 ovarian): 38.8 µM
GI50 (MCF7 breast): > 100 µM
TGI (MCF7 breast): > 100 µM
GI50 (TK-10 renal): > 100 µM
TGI (TK-10 renal): > 100 µM
GI50 (NCI/ADR-RES ovarian): > 100 µM
TGI (NCI/ADR-RES ovarian): > 100 µM
GI50 (NCI-H460 NSCLC): > 100 µM
TGI (NCI-H460 NSCLC): > 100 µM
GI50 (SF-539 CNS): 7.46 µM
TGI (SF-539 CNS): > 100 µM
GI50 (OVCAR-4 ovarian): 11.3 µM
TGI (OVCAR-4 ovarian): > 100 µM
GI50 (LOX IMVI melanoma): > 100 µM
TGI (LOX IMVI melanoma): > 100 µM
GI50 (A498 renal): > 100 µM
TGI (A498 renal): > 100 µM
GI50 (NCI-H322M lung): > 100 µM
TGI (NCI-H322M lung): > 100 µM
GI50 (CCRF-CEM leukemia): 39.2 µM
TGI (CCRF-CEM leukemia): > 100 µM
GI50 (HCC-2998 colon): > 100 µM
TGI (HCC-2998 colon): > 100 µM
GI50 (SK-MEL-2 melanoma): 2.82 µM
TGI (SK-MEL-2 melanoma): 52 µM
GI50 (OVCAR-5 ovarian): > 100 µM
TGI (OVCAR-5 ovarian): > 100 µM
GI50 (HL-60(TB) leukemia): 0.189 µM
TGI (HL-60(TB) leukemia): 0.4 µM
GI50 (HT29 colon): 19.2 µM
TGI (HT29 colon): > 100 µM
GI50 (DU-145 prostate): > 100 µM
TGI (DU-145 prostate): > 100 µM
GI50 (K-562 leukemia): > 100 µM
TGI (K-562 leukemia): > 100 µM

Source: PubChem BioAssay (NCI)
